From US8202885B2, “Bridged six-membered ring compounds” (Actelion Pharmaceuticals Ltd., priority 2007, dated 2012)
“And” between values parts separate entries of the source, which are not always exact repeats. Equal entries are not always repeated.

The compounds below were run on human Cav3.1 Cav3.2 or Cav3.3 channel (assay: In vitro assay T channel (FLIPR calcium fluorescence)). Settings: HEK293 cells expressing human Cav3.1, Cav3.2 or Cav3.3; 10 mM Ca2+-induced fluo-4 fluorescence; determined up to 10 μM; read-out: T channel antagonistic activity IC50.
Assay type: cell-based
Description: The T channel antagonistic activity (IC50 values) of the compounds of formula (I) is determined in accordance with the following experimental method and data are shown in Table 1.
Human embryonic kidney (HEK293) cells expressing the human Cav3.1 Cav3.2 or Cav3.3 channel, respectively, are grown in culture medium (DMEM containing 10% heat-inactivated fetal calf serum (FCS), 100 U/ml penicillin, 100 μg/ml streptomycin and 1 mg/ml G418). The cells are seeded at 20.000 cells/well into 384-well black clear bottom sterile plates (poly-L-lysine-coated, Becton Dickinson). The seeded plates are incubated overnight at 37° C. in 5% CO2. The Ca^2+ solution is prepared as 100 mM stock solution in 100 mM tetraethylammoniumchloride (TEA-chloride), 50 mM HEPES, 2.5 mM CaCl2, 5 mM KCl, 1 mM MgCl2, adjusted to pH 7.2 with TEA-hydroxide, for use in the assay at a final concentration of 10 mM. Antagonists are prepared as 10 mM stock solutions in DMSO, then diluted in 384 w plates first in DMSO, then in 100 mM TEA-chloride, 50 mM HEPES, 2.5 mM CaCl2, 5 mM KCl, 1 mM MgCl2, adjusted to pH 7.2 with TEA-hydroxide, to obtain 9× stocks. On the day of the assay, 25 μl of staining buffer (HBSS containing 20 mM HEPES, 0.375 g/l NaHCO3 and 3 μM of the fluorescent calcium indicator fluo-4 AM (1 mM stock solution in DMSO, containing 10% pluronic) is added to each well of the seeded plate. The 384-well cell-plates are incubated for 60 min at 37° C. in 5% CO2 followed by washing with 2×50 μl per well using HBSS containing 0.1% BSA, 20 mM HEPES, 0.375 g/l NaHCO3, leaving 50 […] of this buffer for equilibration at room temperature (30-60 min). Within the Fluorescent Imaging Plate Reader (FLIPR, Molecular Devices), antagonists are added to the plate in a volume of 6.25 μl/well, incubated for 3 min, and finally 6.25 […] of Ca^2+ solution is added. Fluorescence is measured for each well at 2 second intervals for 8 minutes, and the area under the curve of each fluorescence peak is compared to the area of the fluorescence peak induced by 10 mM Ca^2+ with vehicle in place of antagonist. For each antagonist, the IC50 value (the concentration (in nM) of compound needed to inhibit 50% of the Ca^2+-induced fluorescence response) up to 10 μM is determined.

Row | SMILES | IC50
1 | COc1ccc(C2=CC3CCC2CC3(O)CCN(C)CCCc2nc3ccccc3[nH]2)cc1 (racemic) [Example 22, rac-(1R*,2R*,4R*)-2-(2-{[3-(1H-Benzoimidazol-2-yl)-propyl]-methyl-amino}-ethyl)-5-(4-methoxy-phenyl)-2-yl-bicyclo[2.2.2]oct-5-en-2-ol] | > 10 µM
2 | CC(C)C(=O)OC1(CCN(C)CCCc2nc3ccccc3[nH]2)CC2CCC1CC2c1ccccc1 (racemic) [Example 73A, rac-Isobutyric acid (1R*,2R*,4R*,5S*)-2-(2-{[3-(1H-benzoimidazol-2-yl)-propyl]-methyl-amino}-ethyl)-5-phenyl-bicyclo[2.2.2]oct-2-yl ester and rac-isobutyric acid (1R*,2R*,4R*,5R*)-2-(2-{[3-(1H-benzoimidazol-2-yl)-propyl]-methyl-amino}-ethyl)-5-phenyl-bicyclo[2.2.2]oct-2-yl ester] | 1.75 µM and 2 µM
3 | CC(C)C(=O)O[C@@]1(CCN(C)CCCc2nc3ccccc3[nH]2)C[C@H]2CC[C@@H]1C=C2c1ccccc1 (relative stereo) [Example 1A, rac-Isobutyric acid (1R*,2R*,4R*)-2-(2-{[3-(1H-Benzoimidazol-2-yl)-propyl]-methyl-amino}-ethyl)-5-phenyl-bicyclo[2.2.2]oct-5-en-2-yl ester] | 4.94 µM
4 | COc1cccc(C2=C[C@H]3CC[C@@H]2C[C@@]3(O)CCN(C)CCCc2nc3ccccc3[nH]2)c1 (relative stereo) [Example 2, rac-(1R*,2R*,4R*)-2-(2-{[3-(1H-Benzoimidazol-2-yl)-propyl]-methyl-amino}-ethyl)-5-(3-methoxy-phenyl)-bicyclo[2.2.2]oct-5-en-2-ol] | 5.98 µM
5 | Cc1cccc(C)c1C1=C[C@H]2CC[C@@H]1C[C@@]2(O)CCN(C)CCCc1nc2ccccc2[nH]1 (relative stereo) [Example 3, rac-(1R*,2R*,4R*)-2-(2-{[3-(1H-Benzoimidazol-2-yl)-propyl]-methyl-amino}-ethyl)-5-(2,6-dimethyl-phenyl)-bicyclo[2.2.2]oct-5-en-2-ol] | 6.63 µM
6 | Cc1cccc(C)c1C1=C[C@H]2CC[C@@H]1C[C@]2(CCN(C)CCCc1nc2ccccc2[nH]1)OC(=O)C(C)C (relative stereo) [Example 3A, rac-Isobutyric acid (1R*,2R*,4R*)-2-(2-{[3-(1H-benzoimidazol-2-yl)-propyl]-methyl-amino}-ethyl)-5-(2,6-dimethyl-phenyl)-bicyclo[2.2.2]oct-5-en-2-yl ester] | 4.6 µM
7 | Cc1ccccc1C1=C[C@H]2CC[C@@H]1C[C@@]2(O)CCN(C)CCCc1nc2ccccc2[nH]1 (relative stereo) [Example 4, rac-(1R*,2R*,4R*)-2-(2-{[3-(1H-Benzoimidazol-2-yl)-propyl]-methyl-amino}-ethyl)-5-(2-methyl-phenyl)-bicyclo[2.2.2]oct-5-en-2-ol] | 3.61 µM
8 | Cc1ccccc1C1=C[C@H]2CC[C@@H]1C[C@]2(CCN(C)CCCc1nc2ccccc2[nH]1)OC(=O)C(C)C (relative stereo) [Example 4A, rac-Isobutyric acid (1R*,2R*,4R*)-2-(2-{[3-(1H-benzoimidazol-2-yl)-propyl]-methyl-amino}-ethyl)-5-(2-methyl-phenyl)-bicyclo[2.2.2]oct-5-en-2-yl ester] | 4.22 µM
9 | Cc1cccc(C2=C[C@H]3CC[C@@H]2C[C@@]3(O)CCN(C)CCCc2nc3ccccc3[nH]2)c1 (relative stereo) [Example 5, rac-(1R*,2R*,4R*)-2-(2-{[3-(1H-Benzoimidazol-2-yl)-propyl]-methyl-amino}-ethyl)-5-(3-methyl-phenyl)-bicyclo[2.2.2]oct-5-en-2-ol] | 8.42 µM
10 | Cc1cccc(C2=C[C@H]3CC[C@@H]2C[C@]3(CCN(C)CCCc2nc3ccccc3[nH]2)OC(=O)C(C)C)c1 (relative stereo) [Example 5A, rac-Isobutyric acid (1R*,2R*,4R*)-2-(2-{[3-(1H-benzoimidazol-2-yl)-propyl]-methyl-amino}-ethyl)-5-(3-methyl-phenyl)-bicyclo[2.2.2]oct-5-en-2-yl ester] | 3.45 µM
11 | Cc1ccc(C2=C[C@H]3CC[C@@H]2C[C@@]3(O)CCN(C)CCCc2nc3ccccc3[nH]2)cc1 (relative stereo) [Example 6, rac-(1R*,2R*,4R*)-2-(2-{[3-(1H-Benzoimidazol-2-yl)-propyl]-methyl-amino}-ethyl)-5-(4-methyl-phenyl)-bicyclo[2.2.2]oct-5-en-2-ol] | 4.85 µM
12 | Cc1ccc(C2=C[C@H]3CC[C@@H]2C[C@]3(CCN(C)CCCc2nc3ccccc3[nH]2)OC(=O)C(C)C)cc1 (relative stereo) [Example 6A, rac-Isobutyric acid (1R*,2R*,4R*)-2-(2-{[3-(1H-benzoimidazol-2-yl)-propyl]-methyl-amino}-ethyl)-5-(4-methyl-phenyl)-bicyclo[2.2.2]oct-5-en-2-yl ester] | 6.83 µM
13 | CN(CCCc1nc2ccccc2[nH]1)CC[C@]1(O)C[C@H]2CC[C@@H]1C=C2c1cccc(F)c1 (relative stereo) [Example 7, rac-(1R*,2R*,4R*)-2-(2-{[3-(1H-Benzoimidazol-2-yl)-propyl]-methyl-amino}-ethyl)-5-(3-fluoro-phenyl)-bicyclo[2.2.2]oct-5-en-2-ol] | 4.4 µM
14 | CN(CCCc1nc2ccccc2[nH]1)CC[C@]1(O)C[C@H]2CC[C@@H]1C=C2c1cccnc1 (relative stereo) [Example 9, rac-(1R*,2R*,4R*)-2-(2-{[3-(1H-Benzoimidazol-2-yl)-propyl]-methyl-amino}-ethyl)-5-pyridin-3-yl-bicyclo[2.2.2]oct-5-en-2-ol] | > 10 µM

The remaining compounds from weak to strong by IC50, led by results:

Row | IC50 | SMILES
15 | 3.31 µM | COc1ccccc1C1=CC2CCC1CC2(O)CCN(C)CCCc1nc2ccccc2[nH]1 (racemic) [Example 23, rac-(1R*,2R*,4R*)-2-(2-{[3-(1H-Benzoimidazol-2-yl)-propyl]-methyl-amino}-ethyl)-5-(2-methoxy-phenyl)-2-yl-bicyclo[2.2.2]oct-5-en-2-ol]
16 | 3.14 µM | CC(C)C(=O)O[C@@]1(CCN(C)CCCc2nc3ccccc3[nH]2)C[C@H]2CC[C@@H]1C=C2c1cccc(F)c1 (relative stereo) [Example 7A, rac-Isobutyric acid (1R*,2R*,4R*)-2-(2-{[3-(1H-benzoimidazol-2-yl)-propyl]-methyl-amino}-ethyl)-5-(3-fluoro-phenyl)-bicyclo[2.2.2]oct-5-en-2-yl ester]
17 | 2.34 µM | CC(C)C(=O)O[C@@]1(CCN(C)CCCc2nc3ccccc3[nH]2)C[C@H]2CC[C@@H]1C=C2c1cccnc1 (relative stereo) [Example 9A, rac-Isobutyric acid (1R*,2R*,4R*)-2-(2-{[3-(1H-benzoimidazol-2-yl)-propyl]-methyl-amino}-ethyl)-5-pyridin-3-yl-bicyclo[2.2.2]oct-5-en-2-yl ester]
18 | 2.29 µM | CN(CCCc1nc2ccccc2[nH]1)CC[C@]1(O)C[C@H]2CC[C@@H]1C=C2c1ccccc1 (relative stereo) [Example 1, rac-(1R*,2R*,4R*)-2-(2-{[3-(1H-Benzoimidazol-2-yl)-propyl]-methyl-amino}-ethyl)-5-phenyl-bicyclo[2.2.2]oct-5-en-2-ol]
19 | 2.05 µM | CC(C)C(=O)OC1(CCN(C)CCCc2nc3ccccc3[nH]2)CC2CCC1C1=C2CCc2ccccc21 (racemic) [Example 18A, rac-Isobutyric acid (1R*,3R*,4R*)-1,2,3,4,9,10-hexahydro-3-hydroxy-3-{N-methyl-N-(3-benzimidazol-2-ylpropyl)aminoethyl}-1,4-ethanophenanthrene ester]
20 | 1.79 µM | CN(CCCc1nc2ccccc2[nH]1)CC[C@]1(O)C[C@H]2CC[C@@H]1C=C2c1ccc(F)cc1 (relative stereo) [Example 8, rac-(1R*,2R*,4R*)-2-(2-{[3-(1H-Benzoimidazol-2-yl)-propyl]-methyl-amino}-ethyl)-5-(4-fluoro-phenyl)-bicyclo[2.2.2]oct-5-en-2-ol]
21 | 1.63 µM | CC(C)C(=O)O[C@@]1(CCN(C)CCCc2nc3ccccc3[nH]2)C[C@H]2CC[C@@H]1C=C2c1ccc(F)cc1 (relative stereo) [Example 8A, rac-Isobutyric acid (1R*,2R*,4R*)-2-(2-{[3-(1H-benzoimidazol-2-yl)-propyl]-methyl-amino}-ethyl)-5-(4-fluoro-phenyl)-bicyclo[2.2.2]oct-5-en-2-yl ester]
